Test results published in patent US20140057941A1, “Methods For Increasing Mean Corpuscular Volume” (priority 2011, published 2014).

Columns and labels:
Format in all cases: in vivo
[1] = test system: human subjects with end-stage renal disease; assay: Mean corpuscular volume (MCV) in human subjects with end-stage renal disease on hemodialysis, 6 weeks TIW, no IV iron; details: ESRD; for MCV response following administration for six weeks (Table 1, in words): TIW for 6 weeks, Compound A 1.0, 1.5, 2.0 mg/kg or standard of care epoetin alfa; for Change from baseline of mean MCV over time during the 6 week treatment period (FIG. 1): TIW, Compound A 1.0, 1.5 or 2.0 mg/kg or epoetin alfa; for Mean Change from Baseline MCV at Day 43 (6 weeks) of Treatment: no IV iron
Method: The effect of a compound of the present invention on MCV was determined in human subjects with end-stage renal disease as follows. Subjects had been receiving stable maintenance hemodialysis for at least 4 months prior to the initiation of the present study. Additionally, subjects had been maintained on standard of care stable doses of epoetin alfa for the treatment of anemia prior to initiation of the study described herein.
In order to examine differences in the MCV response in subjects treated with a compound of the invention compared to the MCV response in subjects treated with epoetin alpha (the current standard of care), all IV iron supplementation was halted two weeks prior to treatment initiation. Administration of oral iron was allowed.
[…] Baseline MCV levels were determined prior to treatment (mean of two screening period measurements with the Day 1 measurement). MCV levels were measured weekly throughout the 6-week study period.

[2] = test system: human subjects with end-stage renal disease; assay: Mean hemoglobin levels in human subjects with end-stage renal disease, 6 week treatment; details: TIW; Compound A 1.5 mg/kg and 2.0 mg/kg or epoetin alfa; ESRD
[3] = test system: human subjects with stage 3 or stage 4 chronic kidney disease; assay: MCV in stage 3 and stage 4 chronic kidney disease patients not receiving dialysis, fixed dose, 17 weeks; details: fixed dose 50 mg or 100 mg twice weekly for 17 weeks, dose adjustments from week 5; stage 3/4 CKD not on dialysis
Method: In another set of experiments, the effect of compound of the present invention on MCV was determined in human subjects with stage 3 and stage 4 chronic kidney disease patients (eGFR<60 ml/min) as follows. Subjects with stage 3 or stage 4 chronic kidney disease not receiving dialysis were administered Compound A at a fixed dose of either 50 mg or 100 mg twice weekly for a period of 17 weeks. Dose adjustments were permitted from week 5 onward to correct and maintain subjects to a target hemoglobin range; however, doses were not allowed to exceed 2.2 mg/kg per dose. MCV values were measured weekly.

[4] = test system: human patients, particularly having chronic kidney disease; assay: Overall safety and efficacy of tested doses in human patients; details: 0.7 to 2.5 mg/kg administered TIW, BIW, or QW
Text: In particular embodiments, the present invention provides an efficacious therapeutic compound for treating a human subject having reduced mean corpuscular volume (MCV). In one embodiment, the invention comprises the compound [(4-hydroxy-1-methyl-7-phenoxy-isoquinoline-3-carbonyl)-amino]-acetic acid for use in methods of increasing mean corpuscular volume (MCV) in a human subject.

[5] = test system: human subjects with stage 3 or stage 4 chronic kidney disease; assay: MCV in stage 3 and stage 4 chronic kidney disease patients, 4 weeks; details: stage 3/4 CKD
Method: In another series of experiments, the effect of a compound of the present invention on MCV was determined in stage 3 and stage 4 chronic kidney disease patients ([…]) as follows. Subjects with stage 3 or stage 4 chronic kidney disease were administered placebo or Compound A (1.5 mg/kg or 2.0 mg/kg) twice or thrice weekly for 4 weeks. MCV values were measured weekly.

| Molecule | MCV response following administration for six weeks (Table 1, in words) [1] | Change from baseline of mean MCV over time during the 6 week treatment period (FIG. 1) [1] | Mean Change from Baseline MCV at Day 43 (6 weeks) of Treatment ([1]; standard of care doses TIW, N = 10) [fL] | Changes in mean hemoglobin levels during the 6 week treatment period (FIG. 2) [2] | Mean MCV over time (FIG. 5) [3] | Efficacy of tested doses (increases in MCV) [4] | Safety of tested doses [4] | Mean Change from Baseline MCV at Day 43 (6 weeks) of Treatment ([1]; 1 mg/kg TIW, N = 10) | Mean increase in MCV over baseline after 6 weeks of treatment ([1]; 1.3 mg/kg TIW, N=5) [fL] | Mean Change from Baseline MCV at Day 43 (6 weeks) of Treatment ([1]; 1.5 mg/kg TIW, N = 9) | Mean increase in MCV over baseline after 6 weeks of treatment ([1]; 1.8 mg/kg TIW, N=12) [fL] | Mean Change from Baseline MCV at Day 43 (6 weeks) of Treatment ([1]; 2.0 mg/kg TIW, N = 9) | Mean MCV over time (FIG. 3) ([5]; 1.5 mg/kg or 2.0 mg/kg twice or thrice weekly for 4 weeks) | Mean change from baseline MCV at Day 22 (FIG. 4) ([5]; 1.5 mg/kg or 2.0 mg/kg twice or thrice weekly, increase) |
| --- | --- | --- | --- | --- | --- | --- | --- | --- | --- | --- | --- | --- | --- | --- |
| Epoetin alfa: erythropoiesis-stimulating agent; current standard of care for anemia, used as control [reference compound] | showed decreases in MCV | no increase in mean MCV occurred | -0.12 | did not result in an increase hemoglobin levels | – | – | – | – | – | – | – | – | – | – |
| Cc1nc(C(=O)NCC(=O)O)c(O)c2ccc(Oc3ccccc3)cc12 [Compound A, [(4 hydroxy-1-methyl-7-phenoxy-isoquinoline-3-carbonyl)-amino]-acetic acid] | MCV increased in a dose-dependent manner | resulted in an increase in mean MCV over time | – | time-dependent increase in mean hemoglobin levels | mean MCV initially increased and then stabilized over time | effective | safe | +0.90 fL | 2.03 | +1.46 fL | 2.27 | +2.50 fL | mean MCV increased over time | greater than 3 fL |
